{
  "source": "patent US4180588A",
  "about": "“Immunosuppressant” (Mitsubishi Chemical Industries, Ltd., priority 1977, dated 1979)",
  "key": {"human lymphocytes": {"system": "human lymphocytes", "test": "Inhibition of blastogenesis of human lymphocytes induced by phytohemagglutinin (PHA), 3H-thymidine uptake", "type": "cell-based", "details": "for % Inhibition (3H-thymidine uptake by PHA-stimulated lymphocytes): 72 hours", "protocol": "Inhibition of the blastogenesis of the human lymphocytes induced by phytohemagglutinin (PHA)\n1.5×10^5 human lymphocytes in RPMI-1 640 medium (produced by GIBCO) supplemented with 10 wt. % fetal calf serum were incubated with 0.1 μl of PHA and in the presence or absence of N-(p-hydroxyphenyl)-L-glutamine (total volume: 0.1 ml) in a CO2 incubator at 37° C. for 72 hours. 0.1 μCi of ^3 H-thymidine was pulsed 7 hour before harvesting the cells. The lymphocytes were harvested and the radioactivity incorporated into the cells were counted."}, "Daudi cells": {"system": "Daudi cells", "test": "Growth inhibition of tissue-culture cells (Daudi cells), trypane blue dye exclusion", "type": "cell-based, human", "protocol": "Growth inhibition of tissue-culture cells\n2.6×10^5 /ml tissue culture cells (Daudi cells) derived from human lymphocytes in RPMI-1640 medium supplemented with 10% fetal calf serum were incubated with varied concentration of N-(p-hydroxyphenyl)-L-glutamine for 72 hours at 37° C. The number of live cells was determined by the trypane blue dye exclusion test."}, "skin allograft": {"system": "skin allograft", "test": "Prolongation of the skin allograft in rat (Fisher to Wister/MK)", "type": "in vivo", "details": "25 mg/kg intraperitoneally everyday from day -7 until rejection; controls 9.0±1.6 days", "protocol": "Prolongation of the skin allograft in rat Wister/MK rats received skin allografts from Fisher rats on day 0.\nRecipient rats in the treatment group were administered intraperitoneally 25 mg/kg of N-(p-hydroxyphenyl)-L-glutamine dissolved in a phosphate buffer everyday from day - 7 until the day on which the rejection was observed. Rats treated with the compound rejected their grafts in 15.0±1.7 days, while controls rejected in 9.0±1.6 days."}, "[1]": {"system": "plaque forming cells in the spleen", "test": "Plaque forming cells in the spleen of mice immunized with sheep blood cells (modified Cunningham's method)", "type": "in vivo, mice (ddY)", "details": "for PFC (No. of PFC ± S.E.): 5 animals, day 4, untreated 163 ± 64"}, "[2]": {"system": "nucleated cells in the spleen", "test": "Total number of nucleated cells in the spleen of immunized mice", "type": "in vivo, mice (ddY)", "details": "for Number of nucleated cells (No. of lymphocytes ± S.E.): 5 animals, day 4, untreated 228 ± 18.8", "protocol": "Effect of N-(p-hydroxyphenyl)-L-glutamine on the total number of nucleated cells and the plaque forming cells in the spleen\nThe mice (ddY, 18 to 21 g) were intraperitoneally immunized with 1×10^8 sheep blood cells. The N-(p-hydroxyphenyl)-L-glutamine was administered subcutaneously on day 0, 1, 2 and 3. On day 4, the mice were sacrificed and the plaque forming cells in the spleen were determined according to the modified Cunningham's method (H. Fujiwara et al.; Experimental Method of Immunology Vol. 5, 1475 (1975)).\nTotal number of the nucleated cells in the spleen were counted after lysing erythrocytes with 0.5% acetic acid."}, "[3]": {"test": "Acute toxicity (mortality 7 days after intraperitoneal administration)", "type": "in vivo, mice", "details": "mouse, in vivo, ip, mice, intraperitoneal", "from_the_text": "(§1) The varied doses of N-(p-hydroxyphenyl)-L-glutamine in an aqueous 5% sodium carboxymethyl cellulose solution were intraperitoneally administered to the mice. The mortality 7 days after the administration was as follows: […]"}, "mice": {"system": "mice", "test": "Acute toxicity (mortality 7 days after intraperitoneal administration)", "type": "in vivo", "from_the_text": "as §1"}, "[4]": {"test": "Cytotoxic effect on the murine spleen cells, trypane-blue dye exclusion", "type": "cell-based", "details": "mouse, spleen cells, 48 hours, 86 at 0", "protocol": "(§2) Cytotoxic effect on the murine spleen cells 1×10^6 /ml murine spleen cells in RPMI-1640 medium supplemented with 5% fetal calf serum were incubated with a varied concentration of N-(p-hydroxyphenyl)-L-glutamine for 48 hours at 37° C. And then the viability of the cells was determined by the trypane-blue dye exclusion test."}, "murine spleen cells": {"system": "murine spleen cells", "test": "Cytotoxic effect on the murine spleen cells, trypane-blue dye exclusion", "type": "cell-based", "details": "within the range of the concentration tested", "protocol": "as §2"}, "[5]": {"system": "Adjuvant arthritis in rats", "test": "Adjuvant arthritis in rats (hind foot volume)", "type": "in vivo, Sprague-Dawley rats", "details": "day 1 until day 21", "protocol": "Effect of N-(p-hydroxyphenyl)-L-glutamine on Adjuvant arthritis in rats\nSprague-Dawley rats weighing 150 to 180 g were randomized in 6 groups and kept in a controlled evironment for 2 weeks prior to use. They were fed a standard diet and were allowed to drink water freely ad libitum.\nOn day 0, each rat was injected in the planter region of the right hind paw with 0.05 ml Freund's Complete Adjuvant containing 6 mg/ml of heat killed Mycobacterium butyricum (Difco) in sterile paraffin oil.\nThe volume of the injected (right) and non-injected (left) feet up to a mark on the tibio-tarsal joint was measured by water over-flow method.\nThe sensitized rats were dosed subcutaneously from day 1 until day 21 with either 12.5, 25, or 50 mg/kg of N-(p-hydroxyphenyl)-L-glutamine (γ-GHB), 2.5 mg/kg of prednisolone, and vehicle for control group."}, "[6]": {"details": "50 mg/kg subcutaneously on day 0, 1, 2 and 3"}, "[7]": {"details": "100 mg/kg subcutaneously on day 0, 1, 2 and 3"}, "[8]": {"details": "12.5, 25 or 50 mg/kg subcutaneously"}},
  "data": [
    {"smiles": "N[C@@H](CCC(=O)Nc1ccc(O)cc1)C(=O)O", "values": [
      {"measurement": "inhibition of PHA-induced blastogenesis (in words)", "setting": "human lymphocytes; 40 μg/ml", "result": "complete inhibition"},
      {"measurement": "inhibition of PHA-induced blastogenesis, delayed addition (in words)", "setting": "human lymphocytes; 40 μg/ml added 0, 12, 24 and 48 hours after PHA stimulation", "result": "almost complete inhibition"},
      {"measurement": "% Inhibition (3H-thymidine uptake by PHA-stimulated lymphocytes)", "setting": "human lymphocytes; 0.04 μ/ml", "result": 14, "unit": "%"},
      {"measurement": "% Inhibition (3H-thymidine uptake by PHA-stimulated lymphocytes)", "setting": "human lymphocytes; 0.4 μ/ml", "result": 27, "unit": "%"},
      {"measurement": "% Inhibition (3H-thymidine uptake by PHA-stimulated lymphocytes)", "setting": "human lymphocytes; 4 μ/ml", "result": 67, "unit": "%"},
      {"measurement": "% Inhibition (3H-thymidine uptake by PHA-stimulated lymphocytes)", "setting": "human lymphocytes; 40 μ/ml", "result": 99, "unit": "%"},
      {"measurement": "inhibition at 40 µg/mL", "setting": "Daudi cells; Homo sapiens, Daudi, 40 μg/ml", "result": "~90", "unit": "%"},
      {"measurement": "live cell growth (% of control) at 400 µg/mL", "setting": "Daudi cells; Homo sapiens, Daudi, 400 μg/ml, 72 hours, read-out: Inhibition (%) (Control equals 100)", "result": 0, "unit": "%"},
      {"measurement": "growth inhibition with delayed addition (in words)", "setting": "Daudi cells; addition delayed from 24 hours to 48 hours after start of incubation", "result": "gradually decreased"},
      {"measurement": "growth inhibition with exposure for first 24 hours only (in words)", "setting": "Daudi cells; present for first 24 hours of 72 hours incubation", "result": "did not exhibit any growth inhibition"},
      {"measurement": "time to rejection of skin graft", "setting": "skin allograft", "result": "15.0 ± 1.7", "unit": "days"},
      {"measurement": "production of plaque forming cells (in words)", "setting": "[1]; 50 mg/kg", "result": "significantly inhibited"},
      {"measurement": "PFC (No. of PFC ± S.E.)", "setting": "[1]; [6]", "result": "65.6 ± 9.5 × 10^3 /spleen"},
      {"measurement": "PFC (No. of PFC ± S.E.)", "setting": "[1]; [7]", "result": "65.3 ± 14.0 × 10^3 /spleen"},
      {"measurement": "total number of the nucleated cells in the spleen (in words)", "setting": "[2]; 50 mg/kg", "result": "did not affect"},
      {"measurement": "Number of nucleated cells (No. of lymphocytes ± S.E.)", "setting": "[2]; [6]", "result": "176 ± 13.7 × 10^6 /spleen"},
      {"measurement": "Number of nucleated cells (No. of lymphocytes ± S.E.)", "setting": "[2]; [7]", "result": "226 ± 39.1 × 10^6 /spleen"},
      {"measurement": "LD50 at 168 h", "setting": "[3]", "result": "> 5000", "unit": "mg/kg"},
      {"measurement": "No. of dead mice/No. of treated mice", "setting": "mice; 1.768 g/kg intraperitoneally", "result": "0/5"},
      {"measurement": "No. of dead mice/No. of treated mice", "setting": "mice; 2.5 g/kg intraperitoneally", "result": "0/5"},
      {"measurement": "No. of dead mice/No. of treated mice", "setting": "mice; 3.535 g/kg intraperitoneally", "result": "1/5"},
      {"measurement": "No. of dead mice/No. of treated mice", "setting": "mice; 5 g/kg intraperitoneally", "result": "2/5"},
      {"measurement": "No. of dead mice/No. of treated mice", "setting": "mice; 10 g/kg intraperitoneally", "result": "1/1"},
      {"measurement": "viability at 48 h", "setting": "[4]; concentration 10 (unit inferred)", "result": 83, "unit": "%"},
      {"measurement": "viability at 48 h", "setting": "[4]; concentration 100 (unit inferred)", "result": 87, "unit": "%"},
      {"measurement": "cytotoxic effect on the murine spleen cells (in words)", "setting": "murine spleen cells", "result": "did not exhibit any cytotoxic effect"},
      {"measurement": "left (non-injected) hind foot swelling (in words)", "setting": "[5]; [8]", "result": "reduced significantly"},
      {"measurement": "right (injected) hind foot swelling (in words)", "setting": "[5]; [8]", "result": "reduced significantly"}
    ]},
    {"smiles": "Sc1ncnc2nc[nH]c12", "note": "[6-Mercaptopurine, reference compound]", "values": [
      {"measurement": "PFC (No. of PFC ± S.E.)", "setting": "[1]; 25 mg/kg", "result": "18.8 ± 7.9 × 10^3 /spleen"},
      {"measurement": "Number of nucleated cells (No. of lymphocytes ± S.E.)", "setting": "[2]; 25 mg/kg", "result": "78 ± 9.5 × 10^6 /spleen"}
    ]},
    {"smiles": "C[C@]12C=CC(=O)C=C1CC[C@@H]1[C@@H]2[C@@H](O)C[C@@]2(C)[C@H]1CC[C@]2(O)C(=O)CO", "note": "[prednisolone, reference compound]", "values": [
      {"measurement": "left (non-injected) hind foot swelling (in words)", "setting": "[5]; 2.5 mg/kg subcutaneously", "result": "reduced significantly"},
      {"measurement": "right (injected) hind foot swelling (in words)", "setting": "[5]; 2.5 mg/kg subcutaneously", "result": "reduced significantly"}
    ]}
  ]
}
